Tested on: Salmonella Typhi PhoP-promoter GFP reporter, fluorescence, 4 h
Experiment: Inhibition of PhoP regulon, Salmonella typhi GFP reporter cells, confirmation, 4 h (AID 1850)

SMILES	IC50
NC(=O)c1ccc(N=C2C(=O)Nc3ccc([N+](=O)[O-])cc32)cc1	34.6 µM
O=C(Cn1nc(C(F)F)cc1C(F)F)NNC(=S)Nc1ccc([N+](=O)[O-])cc1	139 µM
NC1=NC[C@H](Cc2ccc(O)cc2)N1CCC12CC3CC(CC(C3)C1)C2	35.8 µM
Cc1ccc(NC(=O)c2ccc([N+](=O)[O-])o2)c(C)c1	76.6 µM
O=C(N/N=C\c1ccc(Cl)s1)c1cccs1	78.5 µM
CCc1ccc(-c2nn(-c3ccccc3)cc2CSC(=N)N)cc1	32.7 µM
CCCCCCCCCCCCCCCC[N+](C)(C)CCN(Cc1ccc(OC)cc1)c1ncccn1	19.3 µM
COC(=O)C1C(O)C(C)C(O)C(C)(O)/C=C\C=C(/C)C(=O)Nc2c(C)c(OC(C)=O)c3c(c2O)C(=O)C(C)=C2OCOC(=C23)/C(C)=C/C(C)(O)C(O)C(C)C1O (configuration not stated)	27.3 µM
Oc1ccc(C[C@H]2CNCCN2CCCCC2CCCCC2)cc1	64.5 µM
Cc1ccc2c(c1)N/C(=C(\C=C(/Cl)[N+](=O)[O-])[N+](=O)[O-])N2	99.7 µM
CC[n+]1c(/C=C/N(C)c2ccccc2)n(-c2ccccc2)c2ccc(-c3nc4ccccc4s3)cc21	5.9 µM
Cc1cc(C)n(/N=C/c2cc([N+](=O)[O-])ccc2O)c(=O)c1	92 µM
C[C@H]1c2cccc(O)c2C(O)=C2C(=O)[C@]3(O)C(O)=C(C(N)=O)C(=O)[C@@H](N(C)C)C3[C@@H](O)C21 (some centres not stated)	1.91 µM
c1ccc2c(c1)C(=NC1CCCCC1)NC2=NC1CCCCC1	65.6 µM
Cc1ccc2c(c1)c1c(n2CC(O)CN2CCC(C)CC2)CCCC1 (configuration not stated)	78.3 µM
CN1CCN(CC(=O)N2CCn3c4c(c5cc(C6CCCCC6)ccc53)CCCC42)CC1 (configuration not stated)	32 µM
Cc1ccc(OCC(=O)N/N=C/c2ccc([N+](=O)[O-])o2)cc1	21.9 µM
O=C1C=CC(=O)N1CCCCCCN1C(=O)C=CC1=O	95.1 µM
O=C(CNC(=O)c1cccc(F)c1)N/N=C/c1ccc([N+](=O)[O-])s1	20 µM
Cc1ccc(Nc2cc(C)c3c(O)cccc3n2)cc1C	6.64 µM
CNC[C@@H](Cc1ccccc1)NC[C@@H](CC1CCCCC1)NCCCc1ccccc1	38.2 µM
CN1CCN(c2nc3cc(C(F)(F)F)ccc3n3cccc23)CC1	73.7 µM
Cc1ccc(OCC(=O)N/N=C\c2c(C)[nH]n(-c3ccccc3)c2=O)c([N+](=O)[O-])c1	66.6 µM
O=[N+]([O-])c1cc(CN2CCN(c3cccc(C(F)(F)F)c3)CC2)c2cccnc2c1O	20.8 µM
NC1CCN(c2nc3c(cc2F)c(=O)c(C(=O)O)cn3-c2ccc(F)cc2F)C1 (configuration not stated)	< 0.23 µM
COc1ccc(Nc2cc(C)c3c(O)cccc3n2)cc1	10.7 µM

SMILES	IC50
CCn1cc(C(=O)O)c(=O)c2cc(F)c(N3CCN(C(=S)NC(=O)c4cc(OC)cc(OC)c4)CC3)cc21	45.8 µM
[O-][n+]1cccc2c(Br)cc(Br)c(O)c21	69.1 µM
O=C(Oc1c(Cl)cc(Cl)c2cccnc12)c1ccco1	14.6 µM
CN1CCN(C(c2ccc(Br)cc2)c2cc(Cl)c3cccnc3c2O)CC1 (configuration not stated)	68.3 µM
CN(C)c1ccc(/C=C/c2ccc3ccccc3[n+]2C)cc1	18.7 µM
OC(CNCCc1ccc(C(F)(F)F)cc1)COC(c1ccccc1)c1ccccc1 (configuration not stated)	25.8 µM
Fc1ccc(Nc2nc(NCc3ccco3)c3ccccc3n2)cc1	3.81 µM
O=C(N/N=C/c1ccccn1)c1cccs1	71.6 µM
Cc1ccc(C(=O)N2C(=S)C(c3ccc(F)cc3)=NC23CCN(C)CC3)cc1	119 µM
CNCC[C@H](Oc1cccc2ccccc12)c1cccs1	82 µM
CN(C)C1C(=O)C(C(N)=O)=C(O)C2(O)C(=O)C3=C(O)c4c(O)cccc4C(C)(O)C3CC12 (configuration not stated)	3.07 µM
CCCCCCCCCCn1c2c(c(=N)c3c1CCC3)CCC2	14.7 µM
N=c1c2c(-c3ccccc3)c(-c3ccccc3)n(Cc3ccco3)c2ncn1CCCn1ccnc1	110 µM
CC(C)(C)c1ccc(OCCCCCCN2CCNCC2)cc1	69.2 µM
CNCCCC1Sc2ccccc2Oc2ccccc21 (configuration not stated)	98.5 µM
CC(=O)NNC(=S)NC(=O)c1ccccc1	20.5 µM
CN1CC=C(/C=C/c2ccc(-c3ccccc3)cc2)CC1	60.2 µM
Cc1cccc2c1Sc1ccc(Cl)cc1CC2N1CCNCC1 (configuration not stated)	78.5 µM
Fc1ccc(Nc2nnc(C(F)(F)F)s2)cc1Cl	36.8 µM
Cc1ccc(C(=O)N/N=C\c2ccc([N+](=O)[O-])s2)cn1	18.6 µM
Cc1cc(C(C)(C)CC(C)(C)C)ccc1OCCOCC[N+](C)(C)Cc1ccccc1	18.2 µM
O=C(Nc1ccc(Cl)cc1)N1CCCN(Cc2ccccc2F)C1	34.9 µM
C#CCOCCOCCOCCNc1nc(N2CCN(C(=O)[C@H](Cc3ccc(O)cc3)n3cc([C@@H](N)CC(C)C)nn3)CC2)nc(N2CCN(C(=O)[C@H](Cc3cc4ccccc4[nH]3)n3cc([C@@H](N)CC(C)C)nn3)CC2)n1	105 µM
CCOc1cc(CNCCCN2CCOCC2)cc(Br)c1OCC(=O)Nc1cccc(C(F)(F)F)c1	84.6 µM
COc1ccc(CNc2ncnc3c2[nH]c2ccccc23)cc1	84.5 µM
COC(=O)C1=C(C)N(Cc2ccccc2)C(=NCc2cccc(C(F)(F)F)c2)N[C@H]1c1cccc(F)c1	33.3 µM

SMILES	IC50
COc1cc(CNC2CCCC2)cc(Cl)c1OCc1ccccc1Cl	71.2 µM
COc1ccc(CNCC(O)COc2ccc(C(C)(C)c3ccccc3)cc2)cc1 (configuration not stated)	20.9 µM
CCn1cc(C(=O)O)c(=O)c2cc(F)c(N3CCN(C(=S)NC(=O)c4cccc(C)c4)CC3)cc21	16 µM
c1cc2c(cc1C1CCCCC1)c1c3n2CCCNC3CCC1 (configuration not stated)	31.2 µM
CCOC(=O)C1=C(C(C)=O)C(c2cccnc2)C(C#N)=C(N)O1 (configuration not stated)	91.5 µM
NC1=NC[C@H](CC2CCCCC2)N1CCc1cc(C(F)(F)F)cc(C(F)(F)F)c1	35.6 µM
C/C(=N\Nc1ccc2nncn2n1)c1ccccn1	65.7 µM
CCN1CCN(CCNC(=O)c2ccc3c(c2)N(Cc2ccc(F)cc2)C(=O)/C(=C/c2ccccc2)S3)CC1	44.8 µM
CCc1ccc(N2CC(C(=O)N/N=C/c3cc([N+](=O)[O-])ccc3O)CC2=O)cc1 (configuration not stated)	55.8 µM
CCC(=O)N1CCN(c2cc3c(cc2F)c(=O)c(C(=O)O)cn3CC)CC1	52.3 µM
N#C/C(N=Nc1ccccc1O)=N\Nc1ccccc1O	36.1 µM
Oc1c(C(Nc2ccccn2)c2cccnc2)cc(Cl)c2cccnc12 (configuration not stated)	36.5 µM
Cc1c(CCOC(=O)C2C3CC4CC(C3)CC2C4)sc[n+]1CC(=O)c1ccc(Br)cc1 (configuration not stated)	34.8 µM
O=C(N/N=C/c1c(O)ccc2ccccc12)c1ccc(CO)nc1	87.3 µM
Clc1c(OCCCn2ccnc2)ccc2ccccc12	39.7 µM
COc1cc(CNCCO)cc(Cl)c1OCc1ccc(Cl)cc1Cl	38 µM
O=C(N/N=C/c1cc(Cl)cc(Cl)c1O)c1ccncc1	35.2 µM
COC(=O)c1sccc1NC(=S)NCc1ccc(Cl)cc1	36.9 µM
CCCCc1ccc(NC2=NCCCS2)cc1	140 µM
CC[C@@H](C)[C@H](CN[C@H](CNC)C(C)C)NC[C@@H](C)c1ccc(CC(C)C)cc1	74 µM
OC(CNCCc1ccccc1)COc1ccc(OCC(O)CNCCc2ccccc2)cc1 (configuration not stated)	35.8 µM
CN(Cc1ccccc1O)CC1CCCN(CCc2ccc(Cl)cc2)C1 (configuration not stated)	98.5 µM
CCc1cccc2c(C(=O)COC(=O)c3ccc([N+](=O)[O-])s3)c[nH]c12	18.8 µM
CCCCCCCCNC(C)C(O)c1ccc(SC(C)C)cc1 (configuration not stated)	25.2 µM
O=C(C[n+]1cc(-c2ccc(Cl)c(Cl)c2)n2c1CCC2)N1c2ccccc2Sc2ccccc21	26.9 µM

Source: PubChem BioAssay AID1850 (Southern Research Specialized Biocontainment Screening …, 2009)
